This passage reports T/C results from PubChem BioAssay AID342 (DTP/NCI, 2004).

This experiment deals with Swiss mice, Sarcoma 180 sc, mean tumor weight T/C. Kind of experiment: NCI In Vivo Anticancer Drug Screen. Data for tumor model Sarcoma 180 (subcutaneous) in Swiss mice. To be noted: endpoint: mean tumor weight, higher = larger tumour. The essentials: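 T/C ratio: treated over vehicle-treated controls, measuring survival or tumor size in transplanted-tumor mice.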
The mark [1] stands for this setting: dose: 62.5 mg/kg/injection, schedule: Q#A X014 (ip), vehicle: carboxymethylcellulose (CMC).
Where [2] appears, read: dose: 62.5 mg/kg/injection, schedule: Q#A X014 (ip), vehicle: methylcellulose (MC).

Where “and” joins values, the source holds several entries; their conditions need not be identical. Equal entries are not always repeated.

Consider `O=c1[nH]c(=O)c2n[nH]nc2[nH]1`, for which the T/C (dose: 0.25 mg/kg/injection, schedule: Q#A X014 (ip), vehicle: carboxymethylcellulose (CMC)) was 122 % of control; the T/C (dose: 0.5 mg/kg/injection, schedule: Q#A X014 (ip), vehicle: carboxymethylcellulose (CMC)) was 102 % of control; the T/C (dose: 2.0 mg/kg/injection, schedule: Q#A X014 (ip), vehicle: carboxymethylcellulose (CMC)) is 114 % of control; the T/C (dose: 86.28 mg/kg/injection, schedule: Q01DX007 (ip), vehicle: carboxymethylcellulose (CMC)) is 68 % of control; the T/C (dose: 172.57 mg/kg/injection, schedule: Q01DX007 (ip), vehicle: carboxymethylcellulose (CMC)) was 49 % of control; the T/C (dose: 345.15 mg/kg/injection, schedule: Q01DX007 (ip), vehicle: carboxymethylcellulose (CMC)) is 102 % of control. The T/C (dose: 690.3 mg/kg/injection, schedule: Q01DX007 (ip), vehicle: carboxymethylcellulose (CMC)) is 51 % of control.
For `NC(=O)c1[nH]cnc1/N=N/N1CCCC1`, the T/C under setting [1] is 73 % of control and the T/C (dose: 125.0 mg/kg/injection, schedule: Q#A X014 (ip), vehicle: carboxymethylcellulose (CMC)) is 107 % of control.
As to `CCC(c1ccc(O)cc1)C(CC)c1ccc(OC)cc1` (stereo unspecified), the T/C is 45 % of control and 53 % of control (dose: 2.0 mg/kg/injection, schedule: Q#A X014 (sc), vehicle: steriod suspending solution); 25 % of control (dose: 2.35 mg/kg/injection, schedule: Q#A X014 (ip), vehicle: methylcellulose (MC)); 32 % of control (dose: 3.5 mg/kg/injection, schedule: Q#A X014 (ip), vehicle: methylcellulose (MC)); 40 % of control (dose: 5.0 mg/kg/injection, schedule: Q#A X014 (ip), vehicle: methylcellulose (MC)); 39 % of control and 52 % of control (dose: 5.5 mg/kg/injection, schedule: Q#A X014 (sc), vehicle: steriod suspending solution); 41 % of control (dose: 7.5 mg/kg/injection, schedule: Q#A X014 (ip), vehicle: methylcellulose (MC)). Moreover, the T/C is 15 % of control (dose: 8.5 mg/kg/injection, schedule: Q#A X014 (ip), vehicle: distilled water + alcohol); 27 % of control (dose: 12.5 mg/kg/injection, schedule: Q#A X014 (ip), vehicle: distilled water + alcohol); 35 % of control and 48 % of control (dose: 16.5 mg/kg/injection, schedule: Q#A X014 (sc), vehicle: steriod suspending solution); 12 % of control (dose: 18.5 mg/kg/injection, schedule: Q#A X014 (ip), vehicle: distilled water + alcohol); 19 % of control (dose: 27.5 mg/kg/injection, schedule: Q#A X014 (ip), vehicle: distilled water + alcohol); 49 % of control (dose: 27.5 mg/kg/injection, schedule: Q#A X014 (ip), vehicle: olive oil, sesame oil, peanut oil). The T/C was 24 % of control and 46 % of control (dose: 27.75 mg/kg/injection, schedule: Q#A X014 (ip), vehicle: methylcellulose (MC)); 48 % of control (dose: 41.5 mg/kg/injection, schedule: Q#A X014 (ip), vehicle: olive oil, sesame oil, peanut oil); 20 % of control and 24 % of control (dose: 41.65 mg/kg/injection, schedule: Q#A X014 (ip), vehicle: methylcellulose (MC)); 33 % of control and 36 % of control (dose: 50.0 mg/kg/injection, schedule: Q#A X014 (sc), vehicle: steriod suspending solution); 20 % of control and 32 % of control under setting [2]; 69 % of control (dose: 62.5 mg/kg/injection, schedule: Q#A X014 (ip), vehicle: olive oil, sesame oil, peanut oil). In addition, the T/C (dose: 94.0 mg/kg/injection, schedule: Q#A X014 (ip), vehicle: methylcellulose (MC)) is 28 % of control and 36 % of control; the T/C (dose: 94.0 mg/kg/injection, schedule: Q#A X014 (ip), vehicle: olive oil, sesame oil, peanut oil) is 42 % of control; the T/C (dose: 150.0 mg/kg/injection, schedule: Q#A X014 (sc), vehicle: steriod suspending solution) is 29 % of control and 44 % of control.
On to `C[C@@H]1CC2=CC(=O)C=C[C@]2(C)[C@H]2CC[C@@]3(C)[C@@H](CC[C@]3(C)O)[C@H]12`, for which the T/C is 61 % of control and 72 % of control (dose: 111.0 mg/kg/injection, schedule: Q01DX007 (sc), vehicle: steriod suspending solution); 43 % of control and 62 % of control (dose: 167.0 mg/kg/injection, schedule: Q01DX007 (sc), vehicle: steriod suspending solution); 57 % of control and 76 % of control (dose: 250.0 mg/kg/injection, schedule: Q01DX007 (sc), vehicle: steriod suspending solution); 38 % of control and 42 % of control and 55 % of control (dose: 375.0 mg/kg/injection, schedule: Q01DX007 (sc), vehicle: steriod suspending solution); 47 % of control and 69 % of control (dose: 750.0 mg/kg/injection, schedule: Q01DX007 (sc), vehicle: steriod suspending solution).
Take `O=c1[nH]c(=O)c2[nH]c(N=Nc3ccc(N(CCCl)CCCl)cc3)nc2[nH]1`: the T/C was 97 % of control (dose: 6.25 mg/kg/injection, schedule: Q#A X014 (ip), vehicle: saline); 72 % of control (dose: 12.5 mg/kg/injection, schedule: Q#A X014 (ip), vehicle: saline); 85 % of control (dose: 25.0 mg/kg/injection, schedule: Q#A X014 (ip), vehicle: saline); 34 % of control and 49 % of control (dose: 50.0 mg/kg/injection, schedule: Q#A X014 (ip), vehicle: saline); 36 % of control (dose: 100.0 mg/kg/injection, schedule: Q#A X014 (ip), vehicle: saline).
For `CC(=O)OCC1OC(n2ccc(N)nc2=O)C(OC(C)=O)C1OC(C)=O` (stereo unspecified), the T/C runs as follows: (dose: 50.0 mg/kg/injection, schedule: Q01DX007 (oral), vehicle: carboxymethylcellulose (CMC)) 44 % of control; (dose: 100.0 mg/kg/injection, schedule: Q01DX007 (oral), vehicle: carboxymethylcellulose (CMC)) 32 % of control; (dose: 200.0 mg/kg/injection, schedule: Q01DX007 (oral), vehicle: carboxymethylcellulose (CMC)) 32 % of control; (dose: 400.0 mg/kg/injection, schedule: Q01DX007 (oral), vehicle: carboxymethylcellulose (CMC)) 63 % of control.
For the molecule `CC(C)[C@]1(O)CC[C@H]2[C@@H]3CCc4cc(O)ccc4[C@H]3CC[C@@]21C`, the T/C (dose: 2.5 mg/kg/injection, schedule: Q01DX007 (sc), vehicle: steriod suspending solution) is 92 % of control; the T/C (dose: 5.0 mg/kg/injection, schedule: Q01DX007 (sc), vehicle: steriod suspending solution) was 60 % of control; the T/C (dose: 10.0 mg/kg/injection, schedule: Q01DX007 (sc), vehicle: steriod suspending solution) was 95 % of control.
On to `NC(=O)c1[nH]cnc1/N=N/N(Cc1ccccc1)Cc1ccccc1`, for which the T/C is 49 % of control (dose: 15.5 mg/kg/injection, schedule: Q#A X014 (ip), vehicle: carboxymethylcellulose (CMC)); 59 % of control (dose: 31.0 mg/kg/injection, schedule: Q#A X014 (ip), vehicle: carboxymethylcellulose (CMC)); 61 % of control under setting [1].
Consider `O=C1N(Cl)C(=O)C(c2ccccc2)(c2ccc(F)cc2)N1Cl` (stereo unspecified), for which the T/C runs as follows: (dose: 17.5 mg/kg/injection, schedule: Q#A X014 (ip), vehicle: methylcellulose (MC)) 121 % of control; (dose: 42.5 mg/kg/injection, schedule: Q#A X014 (ip), vehicle: methylcellulose (MC)) 88 % of control; under setting [2], 75 % of control.
As for `Nc1ccc(C(=O)O)c(O)c1`, the T/C is 108 % of control and 121 % of control (dose: 95.87 mg/kg/injection, schedule: Q01DX007 (ip), vehicle: carboxymethylcellulose (CMC)); 44 % of control (dose: 306.8 mg/kg/injection, schedule: Q01DX007 (ip), vehicle: carboxymethylcellulose (CMC)); 57 % of control (dose: 511.33 mg/kg/injection, schedule: Q01DX007 (ip), vehicle: carboxymethylcellulose (CMC)).
